Residues, ends and D or L forms follow the SMILES beside them. *: point of attachment. X1 = O=C1CCC(N2C(=O)c3cccc(*)c3C2=O)C(=O)N1; PEG4 = NCCOCCOCCOCCOCCC(=O)O

This is an account of results in US20250049930A1, “PROTAC MOLECULES TARGETING FOXP3 AND USES THEREOF” (CEDARS-SINAI MEDICAL CENTER, priority 2022, published 2025).

One assay concerns the target cereblon (Homo sapiens, UniProt Q96SW2). The assay is described as follows: SPR assay, binary complex. The following applies: 25° C., binary complex of cereblon and P-FoxP3. Type of assay: binding. How it is done:
The SPR assay for ternary complex cooperativity was performed by BOC Sciences who provided the following details: Various concentrations of cereblon were dissolved in water and manually printed onto the 47 nm gold-coated PlexArray Nanocapture Sensor Chip (Plexera Bioscience, Seattle, WA) at 40% humidity. Each concentration was printed in replicate, and each spot contained […] of sample solution. The chip was incubated overnight in 80% humidity at 4° C., and rinsed with 10×PBST for 10 minutes, 1×PBST for 10 minutes, and deionized water twice for 10 minutes. The chip was then blocked with 5% non-fat milk in water overnight, washed as before, and then dried under a stream of nitrogen.
SPR imaging measurements were performed with PlexAray HT (Plexera Bioscience, Seattle, WA, US). Buffers and samples were injected by a non-pulsatile piston pump into the 30 μL flow cell. […] The signal changes after binding and washing (in AU) are recorded as the assay value. Selected protein-grafted regions in the SPR images were analyzed, and the average reflectivity variations of the chosen areas were plotted as a function of time. Real-time binding signals were recorded and analyzed by Data Analysis Module (DAM, Plexera Bioscience, Seattle, WA, US). […]
In general terms: In SPR one partner is held on a chip, and binding of the other changes the refractive index at the surface.

Another assay has as its system RENCA cells. Kind of assay: RENCA cell growth in vitro. Type of assay: cell-based, mouse. As to conditions: 0.002, 0.02, 0.2, or 2 μM, 48 hours. How it is done: That is, the tumor in the P60 treated tumor grew at the same rate as the saline treated mice. Further, RENCA cells (20×10^4/well) were seeded in 12 well plates and treated with PF or PC at 0.002, 0.02, 0.2, or 2 μM. […] The first approach involved depleting CD8+ lymphocytes, which are known to mediate antitumor immunity.

The subject of another assay is Tregs. Kind of assay: Treg immunosuppression co-culture assay with human PBMC (CFSE dilution, IFNγ, TNFα). Type of assay: cell-based. The following applies: human CD4+ PBMC treated 72 hours (10 μM), co-cultured with CD4− PBMC stimulated with αCD3 and αCD28; difference to P60 significant. The protocol: FIGS. 7A-7C depict that PF decreases FoxP3 and the immunosuppressive function of human CD4+ cells. Human peripheral blood mononuclear cells (PBMC) were treated in vitro with PF (10 μM) or various control drugs (10 μM) for 3 days (FIG. 7A). PMA 10 ng/ml and Ionomycin 2 μg/ml were added during PF treatment to induce FoxP3 (FIG. 7A). Resulting cells were gated on CD4 and assessed for FoxP3 expression by flow cytometry. To treat Tregs, CD4+ PBMC were isolated and treated with PF or various controls for 72 hours. […] CD8 proliferation was measured using a CFSE dilution assay. To assess CD8+ effector cells, CD4 negative splenocytes were CFSE labeled and CFSE dilution was measured in CD8+ cells by flow cytometry (FIG. 7B). In the same experiment, CD8+ cells were assessed for activation by gating on CD8 and assessing IFNγ or TNFα by flow cytometry (FIG. 7C). […]
Human peripheral blood mononuclear cells (PBMC) were treated with phorbol 12-myristate 13-acetate (PMA) (10 ng/ml) and Ionomycin (2 μg/ml) to increase FoxP3 expression. […] CD8 proliferation was measured using a CFSE dilution assay. Immune activation was assessed by measuring TNFα or IFNγ in CD8+ or CD4+ T cells using flow cytometry.
P60 was designed to bind both mouse and human FoxP3. Therefore, we evaluated PF using human peripheral blood mononuclear cells (PBMC). […] Resulting cells were gated on CD4 and assessed for FoxP3 expression by flow cytometry. […]

Chain of cereblon (Q96SW2 whole entry): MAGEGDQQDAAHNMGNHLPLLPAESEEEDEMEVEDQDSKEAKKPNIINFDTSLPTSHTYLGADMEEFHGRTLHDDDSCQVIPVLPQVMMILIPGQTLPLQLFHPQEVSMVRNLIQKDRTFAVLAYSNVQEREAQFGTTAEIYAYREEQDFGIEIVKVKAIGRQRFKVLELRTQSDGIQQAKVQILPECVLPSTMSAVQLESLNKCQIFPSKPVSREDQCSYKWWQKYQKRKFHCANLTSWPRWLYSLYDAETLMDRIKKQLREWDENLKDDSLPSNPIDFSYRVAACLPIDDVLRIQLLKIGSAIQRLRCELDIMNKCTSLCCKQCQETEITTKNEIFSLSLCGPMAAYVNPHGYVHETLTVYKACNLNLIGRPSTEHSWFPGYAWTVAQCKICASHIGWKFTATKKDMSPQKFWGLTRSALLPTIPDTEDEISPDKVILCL

In turn, `CSCC[C@H](NC(=O)[C@H](C)NC(=O)[C@H](Cc1ccccc1)NC(=O)[C@H](Cc1ccccc1)NC(=O)[C@@H]1CCCN1C(=O)[C@H](Cc1c[nH]c2ccccc12)NC(=O)[C@H](CCSC)NC(=O)[C@H](CCCCN)NC(=O)[C@H](CCCNC(=N)N)NC(=O)[C@H](Cc1ccccc1)NC(=O)[C@H](CO)NC(=O)[C@H](CCC(N)=O)NC(=O)[C@H](Cc1ccccc1)NC(=O)[C@H](CC(=O)O)NC(=O)[C@H](CCCNC(=N)N)NC(=O)CCOCCOCCOCCOCCNc1cccc2c1C(=O)N(C1CCC(=O)NC1=O)C2=O)C(=O)O` (stereo partly shown) [PF, Pomalidomide-PEG4-RDFQSFRKMWPFFAM] ({X1-PEG4}-RDFQSFRKMWPFFAM-OH) displayed a Kd on cereblon of 987 nM. For the same compound, the “RENCA growth in vitro (cell count)” value in the assay with RENCA cells was “did not alter RENCA growth in vitro”. Moreover, in the assay with Tregs, the “CD8+ lymphocyte activation as measured by IFNγ or TNFα” value was “greatest enhancement of CD8+ lymphocyte activation” and the “CD8+ lymphocyte proliferation (CFSE dilution)” value is “highest CD8+ lymphocyte proliferation”.

Broadly, the Kd is the constant that tells how readily two partners part at equilibrium.
